From patent US10723707B2, “Heterocyclic substituted 2-amino quinazoline derivatives for the treatment of viral infections” (JANSSEN SCIENCES IRELAND UNLIMITED COMPANY, priority 2012, dated 2020)

How the values were obtained:
Format in all cases: cell-based
[1] = biological target: T1, human TLR7 (Homo sapiens, UniProt Q9NYK1); test: TLR7 cellular NFκB-luc reporter assay in transiently transfected HEK293 cells; details: lowest effective concentration, 6 hours incubation
T1 construct: expressed in transfected cells; host or cells: HEK293
T1 sequence (Q9NYK1 27-1049): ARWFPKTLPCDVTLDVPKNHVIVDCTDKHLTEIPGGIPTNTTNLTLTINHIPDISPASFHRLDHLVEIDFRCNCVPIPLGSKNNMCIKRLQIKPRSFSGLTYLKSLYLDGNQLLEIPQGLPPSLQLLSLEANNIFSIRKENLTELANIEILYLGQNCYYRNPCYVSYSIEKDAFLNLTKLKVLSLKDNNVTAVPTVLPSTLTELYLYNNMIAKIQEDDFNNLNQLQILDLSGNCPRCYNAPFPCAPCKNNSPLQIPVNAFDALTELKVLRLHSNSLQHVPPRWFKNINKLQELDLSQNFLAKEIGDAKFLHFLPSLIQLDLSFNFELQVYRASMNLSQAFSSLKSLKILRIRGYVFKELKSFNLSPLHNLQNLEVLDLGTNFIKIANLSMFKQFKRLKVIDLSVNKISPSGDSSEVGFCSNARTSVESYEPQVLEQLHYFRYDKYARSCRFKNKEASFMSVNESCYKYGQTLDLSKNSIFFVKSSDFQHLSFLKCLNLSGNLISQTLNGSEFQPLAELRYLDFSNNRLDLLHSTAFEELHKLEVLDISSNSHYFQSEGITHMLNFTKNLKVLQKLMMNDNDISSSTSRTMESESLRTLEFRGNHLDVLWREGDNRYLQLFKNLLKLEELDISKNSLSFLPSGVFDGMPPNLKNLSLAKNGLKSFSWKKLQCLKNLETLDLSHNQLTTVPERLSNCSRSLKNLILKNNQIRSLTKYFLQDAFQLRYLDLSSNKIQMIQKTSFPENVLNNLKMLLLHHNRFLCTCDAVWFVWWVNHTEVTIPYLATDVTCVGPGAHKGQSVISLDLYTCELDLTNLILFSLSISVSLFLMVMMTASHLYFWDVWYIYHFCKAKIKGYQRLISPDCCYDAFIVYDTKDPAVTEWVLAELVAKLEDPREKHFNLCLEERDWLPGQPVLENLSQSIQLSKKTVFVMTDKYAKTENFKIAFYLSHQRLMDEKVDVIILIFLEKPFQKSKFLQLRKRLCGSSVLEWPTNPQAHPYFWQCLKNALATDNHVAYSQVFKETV
Protocol: (§1) The ability of compounds to activate human TLR7 and/or TLR8 was assessed in a cellular reporter assay using HEK293 cells transiently transfected with a TLR7 or TLR8 expression vector and NFκB-luc reporter construct.
(§2) Briefly, HEK293 cells were grown in culture medium (DMEM supplemented with 10% FCS and 2 mM Glutamine). For transfection of cells in 15 cm dishes, cells were detached with Trypsin-EDTA, transfected with a mix of CMV-TLR7 or TLR8 plasmid (1700 ng), NFκB-luc plasmid (850 ng) and a transfection reagent and incubated for 48 h at 37° C. in a humidified 5% CO2 atmosphere. Transfected cells were then washed in PBS, detached with Trypsin-EDTA and resuspended in medium to a density of 1.25×10^5 cells/mL. Forty microliters of cells were then dispensed into each well in 384-well plates, where 200 nL of compound in 100% DMSO was already present. Following 6 hours incubation at 37° C., 5% CO2, the luciferase activity was determined by adding 15 μL of Steady Lite Plus substrate (Perkin Elmer) to each well and readout performed on a ViewLux ultraHTS microplate imager (Perkin Elmer). Dose response curves were generated from measurements performed in quadruplicates. Lowest effective concentrations (LEC) values, defined as the concentration that induces an effect which is at least two fold above the standard deviation of the assay, were determined for each compound.

[2] = test system: interferon-stimulated responsive elements (ISRE); test: Activation of ISRE promoter elements in HEK-ISREluc cells by conditioned media from PBMC; details: Homo sapiens, compound concentration applied to PBMCs, supernatant transferred to HEK-ISREluc cells, 24 hours, read-out: HEK-ISRE luc (LEC)
Protocol: The potential of compounds to induce IFN-I was also evaluated by measuring the activation of interferon-stimulated responsive elements (ISRE) by conditioned media from PBMC. The ISRE element of sequence GAAACTGAAACT (SEQ ID: 1) is highly responsive to the STAT1-STAT2-IRF9 transcription factor, activated upon binding of IFN-I to their receptor IFNAR (Clontech, PT3372-5W). The plasmid pISRE-Luc from Clontech (ref. 631913) contains 5 copies of this ISRE element, followed by the firefly luciferase ORF. A HEK293 cell line stably transfected with pISRE-Luc (HEK-ISREluc) was established to profile the conditioned PBMC cell culture media.
Briefly, PBMCs were prepared from buffy coats of at least two donors using a standard Ficoll centrifugation protocol. Isolated PBMCs were resuspended in RPMI medium supplemented with 10% human AB serum and 2×10^5 cells/well were dispensed into 384-well plates containing compounds (70 μL total volume). After overnight incubation, 10 μL of supernatant was transferred to 384-well plates containing 5×10^3 HEK-ISREluc cells/well in 30 μL (plated the day before). Following 24 hours of incubation, activation of the ISRE elements was measured by assaying luciferase activity using 40 μL/well Steady Lite Plus substrate (Perkin Elmer) and measured with ViewLux ultraHTS microplate imager (Perkin Elmer). The stimulating activity of each compound on the HEK-ISREluc cells was reported as LEC value, defined as the compound concentration applied to the PBMCs resulting in a luciferase activity at least two fold above the standard deviation of the assay. The LEC in turn indicates the degree of ISRE activation on transfer of a defined amount of PBMC culture medium. Recombinant interferon α-2a (Roferon-A) was used as a standard control compound.

[3] = biological target: T2, human TLR8 (Homo sapiens, UniProt Q9NR97); test: TLR8 cellular NFκB-luc reporter assay in transiently transfected HEK293 cells; details: lowest effective concentration, 6 hours incubation
T2 construct: expressed in transfected cells; host or cells: HEK293
T2 sequence (Q9NR97 27-1041): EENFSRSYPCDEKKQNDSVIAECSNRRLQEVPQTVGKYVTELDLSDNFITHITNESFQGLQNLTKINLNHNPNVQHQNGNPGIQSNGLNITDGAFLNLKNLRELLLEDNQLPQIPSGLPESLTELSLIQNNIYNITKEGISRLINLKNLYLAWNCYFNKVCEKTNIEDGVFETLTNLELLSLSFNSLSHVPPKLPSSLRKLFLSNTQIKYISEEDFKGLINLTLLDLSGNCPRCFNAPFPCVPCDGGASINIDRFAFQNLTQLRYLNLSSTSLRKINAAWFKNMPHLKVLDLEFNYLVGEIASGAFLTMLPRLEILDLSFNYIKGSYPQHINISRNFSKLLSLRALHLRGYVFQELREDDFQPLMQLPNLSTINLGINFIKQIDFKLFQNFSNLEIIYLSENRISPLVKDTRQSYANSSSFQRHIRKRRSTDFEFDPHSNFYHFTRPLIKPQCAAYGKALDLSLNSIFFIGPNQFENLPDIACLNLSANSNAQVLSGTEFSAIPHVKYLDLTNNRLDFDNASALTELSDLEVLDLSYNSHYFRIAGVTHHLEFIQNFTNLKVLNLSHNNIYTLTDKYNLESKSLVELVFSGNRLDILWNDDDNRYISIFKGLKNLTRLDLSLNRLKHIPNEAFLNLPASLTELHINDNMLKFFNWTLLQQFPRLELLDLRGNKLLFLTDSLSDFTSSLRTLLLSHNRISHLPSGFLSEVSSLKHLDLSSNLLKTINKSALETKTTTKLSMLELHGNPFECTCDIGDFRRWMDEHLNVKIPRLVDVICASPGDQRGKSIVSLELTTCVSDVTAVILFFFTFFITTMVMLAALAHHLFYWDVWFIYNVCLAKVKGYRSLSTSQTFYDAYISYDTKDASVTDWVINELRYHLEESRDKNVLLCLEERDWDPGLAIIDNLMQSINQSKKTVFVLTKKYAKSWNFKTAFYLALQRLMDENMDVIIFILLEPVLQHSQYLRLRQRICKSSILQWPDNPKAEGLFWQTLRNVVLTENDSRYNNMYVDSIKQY
Protocol: as §1, §2

| SMILES | Human TLR 7 (LEC) [1] | Human TLR 8 (LEC) [3] | minimal effective concentration [2] |
| --- | --- | --- | --- |
| COc1cccc2nc(N)nc(N[C@H](C)c3cccc(C)n3)c12 (single isomer, unassigned) [Compound 20] | 1.46 µM | >25 µM | 0.62 µM |
| Cc1cc(CNc2nc(N)nc3c(F)cccc23)no1 [Compound 14] | 0.65 µM | >25 µM | 0.13 µM |
| COc1cccc2nc(N)nc(N[C@H](C)c3cnn(C)c3)c12 (single isomer, unassigned) [Compound 16] | 2.44 µM | 9.14 µM | 0.55 µM |
| Cc1cc(CNc2nc(N)nc3cccc(F)c23)no1 [Compound 11] | 0.45 µM | 3.09 µM | 0.082 µM |
| CC(Nc1nc(N)nc2cc(C(=O)N(C)C(C)C)ccc12)c1ccccn1 (stereo not drawn) [Compound 24] | 14.3 µM | 11.0 µM | 1.75 µM |
| C[C@@H](Nc1nc(N)nc2cc(C(=O)N3CCCC3)ccc12)c1ccccn1 (single isomer, unassigned) [Compound 28] | 2.24 µM | >25 µM | 1.57 µM |

Second part, led by results:

| Human TLR 7 (LEC) [1] | Human TLR 8 (LEC) [3] | SMILES | minimal effective concentration [2] |
| --- | --- | --- | --- |
| 0.53 µM | 14.7 µM | Cc1ccc2c(N[C@H](C)c3ccccn3)nc(N)nc2c1 (single isomer, unassigned) [Compound 5] | 0.11 µM |
| 14.7 µM | >25 µM | CNC(=O)c1ccc2c(NC(C)c3ccccn3)nc(N)nc2c1 (stereo not drawn) [Compound 22] | 2.2 µM |
| 0.72 µM | >25 µM | C[C@@H](Nc1nc(N)nc2ccccc12)c1ccccn1 (single isomer, unassigned) [Compound 1] | 0.61 µM |
